Laboratory results from patent US20250025443A1, “COMPOUNDS AND METHODS FOR TREATING CORONA VIRUSES” (CLEAR CREEK BIO, INC., priority 2021, published 2025).

molecular target: SARS-CoV-2 Papain-Like Protease (PLpro) (Severe acute respiratory syndrome coronavirus 2 (2019-nCoV) (SARS-CoV-2), UniProt P0DTD1); experiment: biochemical; conditions: PLpro IC50, PLpro enzymatic fluorescence assay; class symbols

For `Cc1ccc(OC[C@@H]2CCN2C)cc1C(=O)NC1(c2cc3ccccc3c3ccccc23)CC1` [Compound 569, (S)-2-Methyl-5-((1-methylazetidin-2-yl)methoxy)-N-(1-(phenanthren-9-yl)cyclopropyl)benzamide], the IC50 was over 5 µM.

same assay, conditions: PLpro enzymatic fluorescence assay; class symbols; read-out: PLpro IC50

`C=Cc1cc(C2(NC(=O)c3cc(OC[C@@H]4CCN4C)ccc3C)CC2)c2ccc(C)nc2c1` [Compound 813, (S)-2-Methyl-N-(1-(2-methyl-7-vinylquinolin-5-yl)cyclopropyl)-5-((1-methylazetidin-2-yl)methoxy)benzamide] and `Cc1ccc2c(C3(NC(=O)c4cc(OC[C@@H]5CCN5C)ccc4C)CC3)cc(N3CC(F)C3)cc2n1` [Compound 816, (S)—N-(1-(7-(3-Fluoroazetidin-1-yl)-2-methylquinolin-5-yl)cyclopropyl)-2-methyl-5-((1-methylazetidin-2-yl)methoxy)benzamide] cannot be ordered by IC50: under 0.1 µM for the first, under 0.1 µM for the second.

`C=Cc1cc(C2(NC(=O)c3cc(OC[C@@H]4CCN4C)c(O)cc3C)CC2)c2cccnc2c1` [Compound 755, (S)-4-Hydroxy-2-methyl-5-((1-methylazetidin-2-yl)methoxy)-N-(1-(7-vinylquinolin-5-yl)cyclopropyl)benzamide] and `C=Cc1cc(C2(NC(=O)c3cc(O[C@H](C)[C@@H]4CCN4C)ccc3C)CC2)c2cccnc2c1` [Compound 758, 2-Methyl-5-((R)-1-((S)-1-methylazetidin-2-yl)ethoxy)-N-(1-(7-vinylquinolin-5-yl)cyclopropyl)benzamide] cannot be ordered by IC50: under 0.1 µM for the first, under 0.1 µM for the second.

`CCCc1cc(C2(NC(=O)c3cc(OCC4CCN4C)ccc3C)CC2)c2ccccc2c1` (centres unmarked) [Compound 504, 2-Methyl-5-((1-methylazetidin-2-yl)methoxy)-N-(1-(3-propylnaphthalen-1-yl)cyclopropyl)benzamide] and `C#Cc1cc(C2(NC(=O)c3cc(OC[C@@H]4CCN4C)ccc3C)CC2)c2cccnc2c1` [Compound 620, (S)-N-(1-(7-Ethynylquinolin-5-yl)cyclopropyl)-2-methyl-5-((1-methylazetidin-2-yl)methoxy)benzamide] cannot be ordered by IC50: under 0.1 µM for the first, under 0.1 µM for the second.

`Cc1cccc(/C=C/c2cc(C3(NC(=O)c4cc(OC[C@@H]5CCN5)ccc4C)CC3)c3cccnc3c2)c1` [Compound 704, (S,E)-5-(Azetidin-2-ylmethoxy)-2-methyl-N-(1-(7-(3-methylstyryl)quinolin-5-yl)cyclopropyl)benzamide] and `Cc1ccc(OC[C@@H]2CCN2)cc1C(=O)NC1(c2cc(-c3ccc(F)cc3)cc3ncccc23)CC1` [Compound 675, (S)-5-(Azetidin-2-ylmethoxy)-N-(1-(7-(4-fluorophenyl)quinolin-5-yl)cyclopropyl)-2-methylbenzamide] cannot be ordered by IC50: under 0.1 µM for the first, under 0.1 µM for the second.

`COc1cc(C2(NC(=O)c3cc(OC[C@H]4CC5(CC5)CN4C)ccc3C)CC2)c2cccnc2c1` [Compound 774, (R)—N-(1-(7-Methoxyquinolin-5-yl)cyclopropyl)-2-methyl-5-((5-methyl-5-azaspiro[2.4]heptan-6-yl)methoxy)benzamide] and `CC(=O)c1ncc(-c2cc(C3(NC(=O)c4cc(OC[C@@H]5CCN5C)ccc4C)CC3)c3cccnc3c2)o1` [Compound 806, (S)-N-(1-(7-(2-Acetyloxazol-5-yl)quinolin-5-yl)cyclopropyl)-2-methyl-5-((1-methylazetidin-2-yl)methoxy)benzamide] cannot be ordered by IC50: under 0.1 µM for the first, under 0.1 µM for the second.

`Cc1ccc(OC[C@@H]2CCN2)cc1C(=O)NC1(c2cc(-c3ccc4nccn4c3)cc3ncccc23)CC1` [Compound 686, (S)-5-(Azetidin-2-ylmethoxy)-N-(1-(7-(imidazo[1,2-a]pyridin-6-yl)quinolin-5-yl)cyclopropyl)-2-methylbenzamide] and `Cc1ccc(OC[C@@H]2CCN2C)cc1C(=O)NC1(c2cc(-c3ccc(C(C)N4CCCC4)s3)cc3ncccc23)CC1` (stereo partly drawn) [Compound 780, 2-Methyl-5-(((S)-1-methylazetidin-2-yl)methoxy)-N-(1-(7-(5-(1-(pyrrolidin-1-yl)ethyl)thiophen-2-yl)quinolin-5-yl)cyclopropyl)benzamide] cannot be ordered by IC50: under 0.1 µM for the first, under 0.1 µM for the second.

Going from `COc1cc(C2(NC(=O)c3cc(O[C@H]4CC[C@@H]5CN(C(=O)OC(C)(C)C)CCN5C4)ccc3C)CC2)c2cccnc2c1` [Compound 776] to `Cc1ccc(OCCN(C)C)cc1C(=O)NC1(c2cccc(O)c2)CC1` [Compound 306, 5-(2-(Dimethylamino)ethoxy)-N-(1-(3-hydroxyphenyl)cyclopropyl)-2-methylbenzamide], the IC50 rises from under 0.1 µM to over 5 µM. The first is the more potent here.

same assay, conditions: SARS-CoV-2 PLpro enzymatic fluorescence assay; read-out: PLpro IC50

Compared with `Cc1ccc(OC[C@H]2CCN2C)cc1C(=O)NC1(c2cccc3ccccc23)CC1` [Compound 309, (R)-2-Methyl-5-((1-methylazetidin-2-yl)methoxy)-N-(1-(naphthalen-1-yl)cyclopropyl)benzamide], `Cc1ccc(OCC2CCN2CC(F)(F)F)cc1C(=O)NC1(c2cccc3ccccc23)CC1` (centres unmarked) [Compound 396, 2-Methyl-N-(1-(naphthalen-1-yl)cyclopropyl)-5-((1-(2,2,2-trifluoroethyl)azetidin-2-yl)methoxy)benzamide] is higher in IC50: under 0.1 µM for the first, 1 to 5 µM for the second.

`Cc1ccc(OC[C@@H]2CCN2C)cc1C(=O)NC1(c2cc(C(F)(F)F)cc3ncccc23)CC1` [Compound 600, (S)-2-Methyl-5-((1-methylazetidin-2-yl)methoxy)-N-(1-(7-(trifluoromethyl)quinolin-5-yl)cyclopropyl)benzamide] and `Cc1ccc(OC[C@@H]2CCN2C)cc1C(=O)NC1(c2cccc3nc(N(C)C)ccc23)CC1` [Compound 548, (S)-N-(1-(2-(Dimethylamino)quinolin-5-yl)cyclopropyl)-2-methyl-5-((1-methylazetidin-2-yl)methoxy)benzamide] cannot be ordered by IC50: under 0.1 µM for the first, under 0.1 µM for the second.

`Cc1ccc(OCC2(N)CC2)cc1C(=O)NC1(c2cccc3ccccc23)CC1` [Compound 256] and `Cc1ccc(OCC2CC(C)(C)N2)cc1C(=O)NC1(c2cccc3ccccc23)CC1` (centres unmarked) [Compound 534, 5-((4,4-Dimethylazetidin-2-yl)methoxy)-2-methyl-N-(1-(naphthalen-1-yl)cyclopropyl)benzamide] cannot be ordered by IC50: under 0.1 µM for the first, under 0.1 µM for the second.

First: Cc1ccc(OCCN(C)C)cc1C(=O)NC1(c2cccc3c2CCCC3)CC1 [Compound 329, 5-(2-(Dimethylamino)ethoxy)-2-methyl-N-(1-(5,6,7,8-tetrahydronaphthalen-1-yl)cyclopropyl)benzamide]
Second: Cc1ccc(OCCN(C)C)cc1C(=O)NC1(c2cncc3ccccc23)CC1 [Compound 409, 5-(2-(Dimethylamino)ethoxy)-N-(1-(isoquinolin-4-yl)cyclopropyl)-2-methylbenzamide]
The IC50 of the first is higher: 0.1 to 1 µM for the first, under 0.1 µM for the second.

First: COc1cc(C(C)N2CCC(C(=O)NCc3cccc(F)c3)CC2)c2ccccc2c1 (centres unmarked) [Compound 524, N-(3-Fluorobenzyl)-1-(1-(3-methoxynaphthalen-1-yl)ethyl)piperidine-4-carboxamide]
Second: Cc1cc2cc(CN3CCOCC3)[nH]c2cc1C(=O)N[C@H](C)c1cccc2ccccc12 [Compound 206, (R)-5-Methyl-2-(morpholinomethyl)-N-(1-(naphthalen-1-yl)ethyl)-1H-indole-6-carboxamide]
The IC50 of the first is lower: 0.1 to 1 µM for the first, 1 to 5 µM for the second.

`Cc1cc2c(cc1C(=O)NC1(c3cccc4ccccc34)CC1)NCCN2` [Compound 297, 7-Methyl-N-(1-(naphthalen-1-yl)cyclopropyl)-1,2,3,4-tetrahydroquinoxaline-6-carboxamide] and `Cc1cc(I)c(N)cc1C(=O)NC1(c2cccc3ccccc23)CC1` [Compound 216, 5-Amino-4-iodo-2-methyl-N-(1-(naphthalen-1-yl)cyclopropyl)benzamide] fall in the same range of IC50: 0.1 to 1 µM for the first, 0.1 to 1 µM for the second.

First: Cc1ccc(N)cc1C(=O)NC(c1cccc2ccccc12)C1CCOCC1 (centres unmarked) [Compound 109, 5-Amino-2-methyl-N-(naphthalen-1-yl(tetrahydro-2H-pyran-4-yl)methyl)benzamide]
Second: Cc1ccc(N)cc1C(=O)NC(c1cccc2ccccc12)C(F)(F)F (centres unmarked) [Compound 183, 5-Amino-2-methyl-N-(2,2,2-trifluoro-1-(naphthalen-1-yl)ethyl)benzamide]
The IC50 of the first is higher: over 5 µM for the first, 1 to 5 µM for the second.

`Cc1ccc(OCC(N)C(C)(C)C)cc1C(=O)NC1(c2cccc3ccccc23)CC1` (centres unmarked) [Compound 343, 5-(2-Amino-3,3-dimethylbutoxy)-2-methyl-N-(1-(naphthalen-1-yl)cyclopropyl)benzamide] and `Cc1ccc(OCC(N)Cc2ccccc2)cc1C(=O)NC1(c2cccc3ccccc23)CC1` (centres unmarked) [Compound 322, 5-(2-Amino-3-phenylpropoxy)-2-methyl-N-(1-(naphthalen-1-yl)cyclopropyl)benzamide] cannot be ordered by IC50: under 0.1 µM for the first, under 0.1 µM for the second.

First: Cc1ccc(OC[C@H]2CCN2)cc1C(=O)NC1(c2cccc3ncccc23)CC1 [Compound 383, (R)-5-(Azetidin-2-ylmethoxy)-2-methyl-N-(1-(quinolin-5-yl)cyclopropyl)benzamide]
Second: Cc1ccc(N)cc1C(=O)NC1(c2cccc3ccccc23)CCC1 [Compound 219, 5-Amino-2-methyl-N-(1-(naphthalen-1-yl)cyclobutyl)benzamide]
The IC50 of the first is lower: under 0.1 µM for the first, over 5 µM for the second. The first is the more potent here.

`Cc1ccc(N2CCN(CCO)CC2)cc1C(=O)NC1(c2cccc3ccccc23)CC1` [Compound 505, 5-(4-(2-Hydroxyethyl)piperazin-1-yl)-2-methyl-N-(1-(naphthalen-1-yl)cyclopropyl)benzamide] and `Cc1ccc(N2CCNCC2)cc1C(=O)NC1(c2cccc3ccccc23)CC1` [Compound 410, 2-Methyl-N-(1-(naphthalen-1-yl)cyclopropyl)-5-(piperazin-1-yl)benzamide] cannot be ordered by IC50: under 0.1 µM for the first, under 0.1 µM for the second.

First: COc1cc(C2(NC(=O)c3cc(OCCN(C)C)ccc3C)CC2)c2ccccc2c1 [Compound 320, 5-(2-(Dimethylamino)ethoxy)-N-(1-(3-methoxynaphthalen-1-yl)cyclopropyl)-2-methylbenzamide]
Second: CN(C)CCOc1ccc(Br)c(C(=O)NC2(c3cccc4ccccc34)CC2)c1 [Compound 269, 2-Bromo-5-(2-(dimethylamino)ethoxy)-N-(1-(naphthalen-1-yl)cyclopropyl)benzamide]
The IC50 of the first is lower: under 0.1 µM for the first, 0.1 to 1 µM for the second.

Compound `Cc1cc2cn[nH]c2cc1C(=O)N[C@H](C)c1cccc2ccccc12` [Compound 142, (R)-5-Methyl-N-(1-(naphthalen-1-yl)ethyl)-1H-indazole-6-carboxamide] has an IC50 of 0.1 to 1 µM.
